Species on record: Rattus norvegicus
Test: Open TG-GATES - Regimen: Single
Format: toxicity, organism-based, Sprague-Dawley
Set-up: regimen Single, gender Male, age 6 weeks
Settings: in vivo, po, route gavage; for gamma-GTP / ALP / ALT / AST / BUN / CRE / Ca / Cl / DBIL / GLC / IP / K / LDH / Na / PL / RALB / TBIL / TC / TG / TP: tissue Plasma; for APTT / Bas / Eos / Fbg / Hb / Ht / Lym / MCH / MCHC / Mono / Neu / Plat / RBC / Ret / WBC: tissue Blood; for KIDNEY_L / KIDNEY_R / KIDNEY_TOTAL: tissue Kidney; for LIVER: tissue Liver
[1] = 10 mg/kg, 3 h, dose level Middle
[2] = 10 mg/kg, 6 h, dose level Middle

O=C(CCCN1CCC(O)(c2ccc(Cl)cc2)CC1)c1ccc(F)cc1 [HALOPERIDOL]
gamma-GTP (3 mg/kg, 24 h, dose level Low): 1.6 IU/L
TERMINAL_BW [1]: 204.5 g
APTT [1]: 17.3 s
Bas [1]: 0%
Eos [1]: 0.4%
Fbg [1]: 202.4 mg/dL
Hb [1]: 13.2 g/dL
Ht [1]: 39.7%
Lym [1]: 71.2%
MCH [1]: 22 pg
MCHC [1]: 33.1%
Mono [1]: 12%
Neu [1]: 16.4%
Plat [1]: 97.9 x10_4/uL
RBC [1]: 598.8 x10_4/ul
Ret [1]: 8.8%
WBC [1]: 87.7 x10_2/uL
KIDNEY_L [1]: 0.9 g
KIDNEY_R [1]: 1 g
KIDNEY_TOTAL [1]: 1.9 g
LIVER [1]: 9.9 g
ALP [1]: 802.2 IU/L
ALT [1]: 36 IU/L
AST [1]: 59.8 IU/L
BUN [1]: 11.6 mg/dL
CRE [1]: 0.6 mg/dL
Ca [1]: 10.8 mg/dL
Cl [1]: 107 meq/L
DBIL [1]: 0.02 mg/dL
GLC [1]: 216.2 mg/dL
IP [1]: 10.1 mg/dL
K [1]: 4.5 meq/L
LDH [1]: 107.4 IU/L
Na [1]: 140 meq/L
PL [1]: 141.2 mg/dL
RALB [1]: 3.5 g/dL
TBIL [1]: 0.3 mg/dL
TC [1]: 80.8 mg/dL
TG [1]: 30 mg/dL
TP [1]: 5.5 g/dL
gamma-GTP [1]: 1.2 IU/L
TERMINAL_BW [2]: 201.2 g
APTT [2]: 16.6 s
Bas [2]: 0%
Eos [2]: 0.8%
Fbg [2]: 201.2 mg/dL
Hb [2]: 13.8 g/dL
Ht [2]: 41.9%
Lym [2]: 69.8%
MCH [2]: 21.6 pg
MCHC [2]: 32.9%
Mono [2]: 5.5%
Neu [2]: 24%
Plat [2]: 99.7 x10_4/uL
RBC [2]: 637.2 x10_4/ul
Ret [2]: 8.6%
WBC [2]: 75.3 x10_2/uL
KIDNEY_L [2]: 0.9 g
KIDNEY_R [2]: 1 g
KIDNEY_TOTAL [2]: 1.9 g
LIVER [2]: 8.9 g
ALP [2]: 922.8 IU/L
ALT [2]: 31.8 IU/L
AST [2]: 56.5 IU/L
BUN [2]: 8.8 mg/dL
CRE [2]: 0.4 mg/dL
Ca [2]: 10.4 mg/dL
Cl [2]: 107.2 meq/L
DBIL [2]: 0.025 mg/dL
GLC [2]: 189.2 mg/dL
IP [2]: 10.2 mg/dL
K [2]: 4.7 meq/L
LDH [2]: 111 IU/L
Na [2]: 139.5 meq/L
PL [2]: 130.5 mg/dL
RALB [2]: 3.5 g/dL
TBIL [2]: 0.4 mg/dL
TC [2]: 75.2 mg/dL
TG [2]: 29.5 mg/dL
TP [2]: 5.5 g/dL

Source: ChEMBL document CHEMBL3885861, “Open TG-GATES”
